In ChEMBL document CHEMBL1142290, “Synthesis of novel oxazolidinone antimicrobial agents” (2008):
Values after ≈ are worked out from the molar mass of the structure shown. Active and inactive are the calls of the source. No cut-off for these calls is given here.

Legend:
Staphylococcus aureus = assay: Antimicrobial activity against Staphylococcus aureus ATCC 29213 after 24 hrs; assay type: functional; details: ATCC 29213, 24 h
Escherichia coli = assay: Antimicrobial activity against Escherichia coli ATCC 25922 upto 100 ug/ml after 24 hrs; assay type: functional, organism-based

SMILES	MIC (Staphylococcus aureus) [µg/mL]	Activity (Escherichia coli)
CC(=O)NC[C@H]1CN(c2ccc3c(c2)Oc2ccccc2O3)C(=O)O1	2 (≈ 5.88 µM)	–
O=C(O)c1cn(C[C@H]2CN(c3ccc4c(c3)Oc3ccccc3O4)C(=O)O2)nn1	> 50	inactive
O=C1O[C@@H](Cn2ccnn2)CN1c1ccc2c(c1)Oc1ccccc1O2	> 50	inactive
CCCCc1cn(C[C@H]2CN(c3ccc4c(c3)Oc3ccccc3O4)C(=O)O2)nn1	> 50	inactive
